Results: US12578343B2, “Selective ACKR3 modulators and uses thereof” (Luxembourg Institute of Health (LIH), priority 2019, dated 2026)

Columns and labels:
ACKR3 [1] = assay: ACKR3 | EC50 (nM)
Excerpt: Table printed on a drawing sheet, FIG. 3 (continued) F
Head of the field: ACKR3 | EC50 (nM)
Footnotes: *NH2-substituted at C-terminus
The patent's description of the figure: FIG. 3. Structure-activity relationship analysis of adrenorphin variants on ACKR3 and classical opioid receptors. (A) Comparison of the impact of substitutions, truncations, extensions, D-amino acid replacement or dimerization on the agonist activity of adrenorphin towards ACKR3, MOR, DOR, KOR and NOP. The agonist activity or each variant was evaluated in β-arrestin-1 recruitment assay in U87 cells and expressed as fold change over the activity of wild-type adrenorphin. (B-E) Comparison of potency and efficacy of adrenorphin (B) and its variants bearing mutations Y1F (C), M5L (D) and R6A (E) to induce β-arrestin-1 recruitment to ACKR3 and the opioid receptors KOR, MOR, DOR and NOP in U87 cells. “˜” indicates a similar impact of the modification on the potency of the peptide towards ACKR3 and the indicated opioid receptor. Results represent the mean±S.E.M. (n ? 3) (F) Comparison of the potencies of peptide variants combining mutations Y1F with other modifications (mutations and/or extension) to induce β-arrestin-1 recruitment to ACKR3. Modified amino acids with respect to the mother peptide (Y1F adrenorphin […]) are underlined and in bold.
First copying reader's note: Bold underlined residues in the sequences mark modifications relative to the mother peptide; the pEC50 cells include the SEM after ±.
Where the first naming reader finds the target: head: ACKR3

DOR = biological target: T1, DOR (Homo sapiens, UniProt P41143); assay: β-arrestin-1 recruitment to DOR (NanoBiT, U87 cells); type: cell-based
T1 construct: expressed in transfected cells; host or cells: U87 cells, transient co-transfection of pNBe vectors
T1 sequence (P41143 whole entry): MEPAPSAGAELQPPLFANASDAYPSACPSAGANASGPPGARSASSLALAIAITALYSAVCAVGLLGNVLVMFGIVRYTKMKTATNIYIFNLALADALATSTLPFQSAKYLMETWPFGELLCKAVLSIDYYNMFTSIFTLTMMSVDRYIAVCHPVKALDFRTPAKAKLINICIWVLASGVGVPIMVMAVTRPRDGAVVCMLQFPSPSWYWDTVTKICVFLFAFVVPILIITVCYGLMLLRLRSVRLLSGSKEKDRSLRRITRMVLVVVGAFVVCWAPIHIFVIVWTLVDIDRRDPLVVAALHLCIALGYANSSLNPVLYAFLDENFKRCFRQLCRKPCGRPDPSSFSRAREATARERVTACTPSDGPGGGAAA
Protocol: (§1) In brief, 1.2×10^6 U87 cells were plated in 10 cm-culture dishes and 48 hours later co-transfected with pNBe vectors encoding GPCRs C-terminally tagged to SmBiT and human β-arrestin-1 or -2 or mini G proteins (mG, engineered GTPase domains of Gα subunits,) N-terminally fused to LgBiT. 48 hours post-transfection cells were harvested, incubated 25 minutes at 37° C. with Nano-Glo Live Cell substrate diluted 200-fold and distributed into white 96-well plates (5×10^4 cells per well). Ligand-induced, β-arrestin and mG recruitment to GPCRs was evaluated with a Mithras LB940 luminometer (Berthold Technologies) for 20 minutes. For concentration-response curves, the signal recorded with a saturating concentration of full agonist for each receptor was set as 100%.

MOR = biological target: T2, MOR (Homo sapiens, UniProt P35372); type: cell-based
T2 construct: expressed in transfected cells; host or cells: U87 cells, transient co-transfection of pNBe vectors
T2 sequence (P35372 whole entry): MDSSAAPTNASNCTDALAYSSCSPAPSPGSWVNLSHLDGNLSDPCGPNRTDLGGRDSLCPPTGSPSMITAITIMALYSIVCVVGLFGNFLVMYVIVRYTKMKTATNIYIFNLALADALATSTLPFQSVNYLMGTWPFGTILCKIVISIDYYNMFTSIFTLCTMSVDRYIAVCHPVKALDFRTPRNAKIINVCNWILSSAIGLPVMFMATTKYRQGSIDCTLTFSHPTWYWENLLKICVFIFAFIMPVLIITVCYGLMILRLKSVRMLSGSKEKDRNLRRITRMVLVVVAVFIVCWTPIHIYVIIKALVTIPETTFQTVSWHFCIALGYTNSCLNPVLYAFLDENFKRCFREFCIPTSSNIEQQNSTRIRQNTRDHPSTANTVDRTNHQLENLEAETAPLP
Protocol: as §1

ACKR3 [2] = biological target: T3, ACKR3 (Homo sapiens, UniProt P25106); type: cell-based; parameters: expressed in transfected cells; host or cells: U87 cells, transient co-transfection of pNBe vectors
Target sequence in this assay (P25106 whole entry): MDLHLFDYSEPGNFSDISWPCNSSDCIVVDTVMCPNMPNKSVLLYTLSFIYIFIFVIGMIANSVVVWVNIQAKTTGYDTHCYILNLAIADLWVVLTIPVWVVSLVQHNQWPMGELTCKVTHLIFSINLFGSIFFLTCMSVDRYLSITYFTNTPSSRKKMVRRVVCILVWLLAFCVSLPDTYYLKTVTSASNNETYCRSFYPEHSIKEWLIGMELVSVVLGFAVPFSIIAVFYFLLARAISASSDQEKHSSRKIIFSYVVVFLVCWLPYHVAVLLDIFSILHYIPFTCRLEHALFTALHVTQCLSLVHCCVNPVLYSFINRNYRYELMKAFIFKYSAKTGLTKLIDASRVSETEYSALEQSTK
Target sequence in this assay (P49407 whole entry partner): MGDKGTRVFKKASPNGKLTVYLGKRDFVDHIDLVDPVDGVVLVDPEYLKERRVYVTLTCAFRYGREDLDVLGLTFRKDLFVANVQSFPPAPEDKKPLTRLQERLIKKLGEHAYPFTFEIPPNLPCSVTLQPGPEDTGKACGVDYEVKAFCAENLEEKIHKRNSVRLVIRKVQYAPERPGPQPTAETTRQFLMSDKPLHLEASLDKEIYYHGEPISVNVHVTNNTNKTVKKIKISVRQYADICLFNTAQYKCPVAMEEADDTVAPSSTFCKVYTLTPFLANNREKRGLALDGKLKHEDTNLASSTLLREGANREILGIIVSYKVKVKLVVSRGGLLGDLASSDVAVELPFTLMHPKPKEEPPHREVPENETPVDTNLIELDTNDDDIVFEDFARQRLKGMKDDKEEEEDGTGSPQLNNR

KOR = KOR (Homo sapiens, UniProt P41145); assay: β-arrestin-1 recruitment to KOR (NanoBiT, U87 cells); type: cell-based; parameters: expressed in transfected cells; host or cells: U87 cells, transient co-transfection of pNBe vectors
KOR, sequence (P41145 whole entry): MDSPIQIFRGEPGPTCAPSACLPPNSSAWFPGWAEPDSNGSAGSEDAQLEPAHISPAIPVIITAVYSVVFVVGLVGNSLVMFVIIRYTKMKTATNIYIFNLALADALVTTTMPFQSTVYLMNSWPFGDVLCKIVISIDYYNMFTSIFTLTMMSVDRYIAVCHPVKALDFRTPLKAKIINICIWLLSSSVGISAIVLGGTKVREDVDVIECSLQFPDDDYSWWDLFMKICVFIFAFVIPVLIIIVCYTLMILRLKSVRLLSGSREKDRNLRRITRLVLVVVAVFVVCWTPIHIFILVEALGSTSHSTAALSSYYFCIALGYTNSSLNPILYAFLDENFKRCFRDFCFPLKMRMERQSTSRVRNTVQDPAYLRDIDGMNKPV
Protocol: as §1

[3] = tested on: rat locus coeruleus neurons; type: cell-based
Protocol: 1.9. Ex Vivo Rat Neuron Depolarization
Adult male Wistar rats (6 to 8-week old) were housed at room temperature in groups of three or four with a 12:12 hour light-dark cycle. All animals had access to ad libitum food and water. All procedures were carried out in accordance with guidelines of the European Communities Council Directive of 24 Nov. 1986 (86609EE) and were accepted by the Ethics Committee for Animal Use of the University of Liège (protocol 2061). All efforts were made to minimize animal suffering.
1.9.2. Brain Explant Preparation and Recording Procedures
Rats were anaesthetized with chloral hydrate (400 mg/kg, i.p.) and placed under a cap with oxygenated air (95% O2, 5% CO2) two minutes prior to decapitation. After decapitation, the brain was rapidly removed and placed in ice cold (˜2° C.) oxygenated artificial cerebrospinal fluid (aCSF) of the following composition: NaCl 130 mM, KCl 3.5 mM, NaH2PO4 1.25 mM, NaHCO3 24 mM, Glucose 10 mM, CaCl2 2 mM, MgSO4 1.25 mM. A block of tissue containing the pons was placed in a vibrating blade microtome (Vibratome 1000 Plus, Sectioning System) and a slice containing the locus coeruleus (LC) immediately rostral to the fourth ventricle and the VIIth nerve, used as anatomical landmarks, was cut coronally (400 μm thick). The slice was placed on a nylon mesh in a recording chamber (volume: 0.5 ml) where it was superfused by oxygenated aCSF (34.0±0.5° C.) at a rate of 2 to 3 ml/min. The LC was recognized as a translucent region during transillumination, lateral to the fourth ventricle. All experiments were performed in oxygenated aCSF with synaptic blockers consisting of 10 μM CNQX, 10 μM SR95531, 1 μM MK801, and 1 μM CGP55845, which block AMPA/Kainate, GABAA, NMDA, and GABAB receptors, respectively. This ensured that the spontaneous firing of the neurons was only due to its endogenous pace making.
Extracellular single cell recordings of LC neurons were performed with glass microelectrodes filled with aCSF (resistance 10-20 MΩ). Signals were passed through an impedance adapter and were amplified 1000× using a home-made amplifier. […] Data were collected and analysed with the Spike 2 software (Cambridge Electronic Design). […] The duration of the extracellularly recorded action potentials was 2-3 ms. Drugs and peptides were applied for at least 10 minutes.
The mean firing rate over 1 minute was calculated during each condition. Next, the inhibition of firing by the peptides and drugs used (LIH383 and dynorphin) was quantified as the % of total inhibition. For this purpose, present inventors considered the mean firing rate during the last minute of each condition (control, LIH383 alone, LIH383 plus a given concentration of dynorphin).

ACKR3 [4] = biological target: T3, ACKR3; assay: ACKR3-mediated depletion of extracellular dynorphin A monitored by its ability to activate KOR (U87-ACKR3 cells); type: cell-based; parameters: expressed in transfected cells; for the receptor comparison in the uptake assay, transient pcDNA3.1); conditions: for reversal of the ACKR3-mediated impairment of dynorphin A potency to activate KOR by pre-treatment: pre-treatment of ACKR3-expressing cells, saturating concentration
Protocol: as §1
Target sequence in this assay (P25106 whole entry): as the sequence (P25106 whole entry) above

ACKR3 [5] = biological target: T3, ACKR3; assay: Uptake of fluorescently labelled opioid peptides by ACKR3-expressing U87 cells, imaging flow cytometry; type: cell-based; parameters: expressed in transfected cells; for the receptor comparison in the uptake assay, transient pcDNA3.1); conditions: 40 minutes at 37° C.
Target sequence in this assay (P25106 whole entry): as above
Excerpt: Visualization of Fluorescently Labelled Opioid Peptides Uptake by Imagestream

smNPCs = assay: Uptake of labelled dynorphin A (1-13) by smNPCs, imaging flow cytometry; type: cell-based, human
Protocol: U87 cells derived from human brain glioblastoma were obtained through the NIH AIDS Reagent Program from Dr. Deng and Dr. Littman. U87 stably expressing ACKR3 and CXCR4 were generated as previously described in Szpakowska, M. et al. Different contributions of chemokine N-terminal features attest to a different ligand binding mode and a bias towards activation of ACKR3/CXCR7 compared with CXCR4 and CXCR3. Br J Pharmacol 175, 1419-1438 (2018). U87 cells were grown in Dulbecco's modified Eagle medium (DMEM) supplemented with 15% foetal bovine serum and penicillin/streptomycin (100 Units/ml and 100 μg/ml). U87-ACKR3 and U87-CXCR4 were maintained under puromycin (1 μg/ml) selective pressure. smNPCs (small molecule neural precursor cells) derived from a healthy donor (C1-1) whose informed consent was obtained, were grown on Geltrex™-coated surface in N2B27 medium supplemented with 0.5 μM Purmorphamine, 3 μM CHIR 99021 and 150 μM ascorbic acid. N2B27 medium consisted of DMEM/F12 and NeuroBasal medium 50:50 with 0.5% N2 supplement, 1% B27 supplement lacking vitamin A, 1% GlutaMAX and 1% penicilin/streptomycin. Medium was renewed every other day.
Cells were distributed into 96-well plates (2×10^5 cells/well in Opti-MEM for U87 and U87-ACKR3 and 3×10^5 cells/well in N2B27 medium for smNPCs). […] For comparison of labelled opioid peptide-uptake by ACKR3 or classical opioid receptors, 1.2×10^6 U87 cells were seeded in 10-cm dishes and transfected 48 hours later with 4 μg pcDNA3.1 plasmid encoding ACKR3 or KOR, MOR or NOP. 48 hours post transfection, cells were harvested and treated as described above. Dead cells were excluded using Zombie NIR or Zombie Green viability dye (BioLegend) for FAM-labelled peptides and Cy5-labelled peptides, respectively. Images of 1×10^4 in-focus, living single cells were acquired with an ImageStream MKII imaging flow cytometer (Amnis) using 40× magnification (60× magnification for smNPCs). Samples were analysed using Ideas6.2 software. The number of spots per cell was determined using a mask-based software wizard.

## FGGWMRRK (peptide 4) [SEQ ID NO: 6]
ACKR3 [1]
  EC50: 4.03 nM

## FGGWMRRF (peptide 47) [SEQ ID NO: 72]
ACKR3 [1]
  EC50: 19.1 nM

## FGGFMRRV* (mother peptide) [compound 35]
ACKR3 [1]
  EC50: 9.33 nM

## FGGFMRRVR (peptide 3) [SEQ ID NO: 5]
ACKR3 [1]
  EC50: 3.97 nM

## FGGFMRRFR (peptide 45) [SEQ ID NO: 70]
ACKR3 [1]
  EC50: 16.3 nM

## FGGFMRRV [adrenorphin Y1F variant]
DOR
  reduction of potency towards DOR as compared to WT adrenorphin: over 100 fold
MOR
  reduction of potency towards MOR as compared to WT adrenorphin: over 100 fold
ACKR3 [2]; β-arrestin-1 recruitment, U87 cells
  impact of adrenorphin modification on activity towards ACKR3 (versus adrenorphin), in words: tenfold improvement in potency
KOR
  reduction of potency towards KOR as compared to WT adrenorphin: over 100 fold

## C=CCN1CC[C@]23c4c5ccc(O)c4O[C@H]2C(=O)CC[C@@]3(O)[C@H]1C5 [naloxone]
[3]
  effect of dynorphin A (1 μM) on neuronal firing rate after naloxone pretreatment: did not lead to a change in neuronal firing rate

## FGGWMRRV (peptide 43) [SEQ ID NO: 68]
ACKR3 [1]
  EC50: 10.5 nM

## FGGWMRRKR (peptide 6) [SEQ ID NO: 11]
ACKR3 [1]
  EC50: 7.34 nM

## CXCL11: C—X—C motif chemokine 11, endogenous ACKR3 chemokine ligand
ACKR3 [2]; U87 cells, read-out: EC50 in inducing β-arrestin recruitment to ACKR3
  EC50: 2.2 nM

## CC[C@H](C)[C@H](NC(=O)[C@H](CCCNC(=N)N)NC(=O)[C@H](CCCNC(=N)N)NC(=O)[C@H](CC(C)C)NC(=O)[C@H](Cc1ccccc1)NC(=O)CNC(=O)CNC(=O)[C@@H](N)Cc1ccc(O)cc1)C(=O)N[C@@H](CCCNC(=N)N)C(=O)N1CCC[C@H]1C(=O)N[C@@H](CCCCN)C(=O)N[C@@H](CC(C)C)C(=O)N[C@@H](CCCCN)C(=O)N[C@@H](Cc1c[nH]c2ccccc12)C(=O)N[C@@H](CC(=O)O)C(=O)N[C@@H](CC(N)=O)C(=O)N[C@@H](CCC(N)=O)C(=O)O [dynorphin A]
[3]; LIH383 3 μM group, read-out: EC50 of dynorphin for inhibition of firing, one aberrant individual value that was omitted
  EC50: 559 nM
[3]; explants of rat locus coeruleus
  concentration giving total inhibition of neuron depolarization (neuronal firing): 1 µM
ACKR3 [4]
  apparent potency to activate KOR in the presence of ACKR3-expressing cells: impaired

## FGGWMRRVR (peptide 5) [SEQ ID NO: 10]
ACKR3 [1]
  EC50: 5.42 nM

## CXCL10: irrelevant (negative control) chemokine
ACKR3 [4]
  reversal of the ACKR3-mediated impairment of dynorphin A potency to activate KOR by pre-treatment: not

## dynorphin A 1-13: endogenous opioid peptide, fragment of dynorphin A (YGGFLRRIRPKLK) [reference compound]
ACKR3 [5]
  uptake of the fluorescently labelled peptide by ACKR3-expressing cells (also versus classical opioid receptor): more efficient compared to that of KOR
smNPCs; 250 nM, 40 minutes at 37° C.
  accumulation of the labelled peptide by smNPCs: able to accumulate

## dynorphin 2-13: endogenous truncated dynorphin variant [reference compound]
ACKR3 [2]; U87 cells
  β-arrestin recruitment to ACKR3: agonist activity/potency in words: activated

## MRRKFGGF [LIH383 ctrl, control peptide consisting of the 8 amino acids building LIH383 in a different arrangement, reference compound]
ACKR3 [4]
  reversal of the ACKR3-mediated impairment of dynorphin A potency to activate KOR by pre-treatment: not
smNPCs; 3 μM, 15 minutes pre-treatment
  effect of pretreatment on uptake of labelled dynorphin A (1-13) by smNPCs: not

## Oc1ccc2c3c1O[C@H]1c4[nH]c5c(c4C[C@@]4(O)[C@@H](C2)N(CC2CC2)CC[C@]314)C[C@@]1(O)[C@H]2Cc3ccc(O)c4c3[C@@]1(CCN2CC1CC1)[C@H]5O4 [nor-binaltrophimine, reference compound]
ACKR3 [2]; 10 μM, 1 μM and 100 nM
  activity of opioid modulators towards ACKR3 in β-arrestin recruitment: Weak activation of ACKR3

## FGGFMRRKR (peptide 2) [SEQ ID NO: 4]
ACKR3 [1]
  EC50: 1.11 nM

## YGGFMRRV* (adrenorphin) [compound 32]
ACKR3 [1]
  EC50: 109 nM

## FGGFMRRF (peptide 44) [SEQ ID NO: 69]
ACKR3 [1]
  EC50: 11 nM

## dynorphin 2-17: endogenous truncated dynorphin variant (GGFLRRIRPKLKWDNQ; listed as Homo sapiens) [reference compound]
ACKR3 [2]; U87 cells
  β-arrestin recruitment to ACKR3: agonist activity/potency in words: activated

## FGGWMRRFR (peptide 46) [SEQ ID NO: 71]
ACKR3 [1]
  EC50: 19.1 nM
